Results: article PMC10851555, “Safinamide, an inhibitor of monoamine oxidase, modulates the magnitude, gating, and hysteresis of sodium ion current” (BMC Pharmacology & Toxicology, 2024)

System: voltage-gated sodium ion (NaV) channels in pituitary GH3 cells
Experiment: Whole-cell INa(T) decay during a 1-s, 20-Hz train of depolarizing pulses in GH3 cells
Type: cell-based, rat
Details: control 65 ± 4 ms, n = 7
Method: Shortly before experiments, GH3 was carefully suspended in normal Tyrode’s solution at room temperature (20–25 °C). A few drops of the suspension containing cell clumps were immediately added to a custom-built chamber on the stage of an inverted Diaphot-200 microscope (Nikon, Tokyo, Japan). Pipettes were pulled from Kimax-51 soft-glass capillaries (#34500-99; Kimble, Vineland, NJ) by using a Narishige PP-830 Vertical Puller (Tokyo, Japan), and their tips were fire-polished using a microforge (MF-83, Narishige). During the measurements, an electrode with a tip resistance of 2–4 MΩ, which was tightly inserted into a holder, was maneuvered using a WR-98 micromanipulator (Narishige). Patch-clamp experiments were performed in the voltage-clamp mode with either cell-attached or whole-cell configuration (rupturing of the membrane patch after GΩ formation) by using a RK-400 Patch-Clamp Amplifier (Bio-Logic, Claix, France) connected to a laptop. Shortly before GΩ formation, potential correction was performed for a liquid junction potential, which developed at the electrode’s tip because of the difference in the compositions of the internal and bath solutions.
SAF is efficacious as an add-on therapy following subthalamic nucleus deep brain stimulation in patients with Parkinson’s disease. Therefore, we investigated whether SAF could modify the inactivation of currents induced by a train of depolarizing stimuli. The test cells were maintained at −80 mV and subjected to repetitive depolarization to −10 mV (40 ms per pulse; rate of 20 Hz; duration of 1 s). Similar to the findings of relevant studies, during the control period (the absence of SAF), INa(T) inactivation was noticed to be induced by 1 s of repetitive depolarization stimuli (−80 to −10 mV) with a decaying time constant of 65 ± 4 ms (n = 7; Fig. 6A, 6B and 6C). […] In the presence of 3 and 10 μM SAF, the exponential time course of INa(T) induced by the same train of depolarizing pulses was longer at 107 ± 5 ms (n = 7, P < 0.05) and 124 ± 6 ms (n = 7, P < 0.05), respectively. Furthermore, as MGB and ranolazine have been reported to suppress the amplitude of INa effectively, we added ranolazine (Ran; 10 μM) and mirogabalin (MGB; 10 μM) separately in the presence of 10 μM SAF. […] The application of Ran (10 μM) or MGB (10 μM) alone decreased the decaying time constant of INa(T) during the same train of depolarizing pulses to 39 ± 4 ms (n = 7, P < 0.05) or 42 ± 4 ms (n = 7, P < 0.05), respectively, from a control value of 66 ± 5 ms (n = 7). Thus, in addition to increasing the magnitude of INa(T), SAF prominently affects the decaying of INa(T) subjected to a 1-s train of depolarizing pulses.
Fig. 6 Effect of SAF on INa(T) decay induced by a train of depolarizing pulses in GH3 cells. The train of pulses comprised twenty 40-ms pulses (voltage increased to −10 mV) with 10-ms intervals at −80 mV for a total duration of 1 s. (A) Current traces during the control period (a, blue) and during exposure to 10 μM SAF (b, red). The voltage-clamp protocol used is indicated atop the current traces. In panel A, the third graphs (blue and red) from the top are the expanded forms of the second graphs (brown dashed boxes). (B) The relative amplitude of INa(T) versus pulse train duration in the absence (blue open circles) and presence (red open squares) of 10 μM SAF (mean ± standard error of the mean; n = 7 for each point). The INa(T) amplitudes were normalized by dividing the current amplitudes at the end of each pulse-train stimulation by those obtained at the beginning of the pulse train stimulation. The gray continuous lines on which the data points are overlaid are reliably fitted with a single exponential.

For C[C@H](NCc1ccc(OCc2cccc(F)c2)cc1)C(N)=O [SAF, (S)-2-((4-((3-fluorobenzyl)oxy)benzyl)amino)propanamide], the “decaying time constant of INa(T) during train of depolarizing pulses” value (3 μM SAF) was 107 ± 5 ms and the “decaying time constant of INa(T) during train of depolarizing pulses” value (10 μM SAF) was 124 ± 6 ms.
